# Laboratory results from patent publication US11214803B2, “Modulators of YAP1 expression” (Ionis Pharmaceuticals, Inc., priority 2019, dated 2022).
# Strand notation (5' to 3'): a small letter for the sugar, then the base; units joined by * are phosphorothioate-linked, units joined directly phosphodiester-linked; [ ] holds rarer units or linkages, { } end groups; capitals alone tell only the bases. k = constrained ethyl (cEt); [5mC] = 5-methylcytosine; d = 2'-deoxy (DNA)
# Experiments:
# ERK1/2 = test: Measurement of ERK activation (pERK/ERK) in SNU449 xenograft model with sorafenib (second Example 30); type: in vivo, human; conditions: SNU449 xenograft in mice, combination therapy compared with sorafenib treatment alone
# Description: (§1) Five million SNU449 cells in 30% matrigel were implanted subcutaneously into the fatpads of female NOD.Cg-Prkdcscid II2rgtmlWjl/SzJ mice (from Jackson Laboratory) at 4-6 weeks of age. 43 days post implantation (when tumors had reached approximately 100 mm^3 in size), groups of eight mice each were administered with 50 mg/kg modified oligonucleotide daily for 10 days (loading dose), following which they were administered with 50 mg/kg modified oligonucleotide four times a week for one week, following which they were dosed with 50 mg/kg modified oligonucleotide thrice weekly until the end of the study.
# Protein analysis was carried out using standard procedures. […] ERK protein levels were compared to internal control GAPDH. […] The secondary antibody used was donkey anti-rabbit NA934, GE Healthcare. pERK/ERK levels were calculated relative to PBS control to determine % activation of ERK1/2.
# SNU449 xenograft tumor = test: Tumor volume in SNU449 xenograft tumor model, alone and in combination with sorafenib (second Example 30); type: in vivo, human; conditions: SNU449 xenograft in mice
# Description: Modified oligonucleotides described in the studies above were tested in a hepatocellular carcinoma SNU449 xenograft tumor model. […] A control oligonucleotide 792169, described herein above, was also tested.
# as §1, with “study. […] Animals were sacrificed, and tumors were collected on day 119 post implantation.” for “study.”
# Tumor volumes were also measured at the indicated days in the table below.
# [1] = Cynomolgus monkey tolerability, urine analysis (Example 34); conditions: cynomolgus monkeys, 35 mg/kg subcutaneously, day 44
# Description: (§4) Prior to the study, the monkeys were kept in quarantine during which the animals were observed daily for general health. The monkeys were 2-4 years old and weighed 2-4 kg. Eleven groups of 4 randomly assigned male cynomolgus monkeys each were injected subcutaneously with Ionis oligonucleotide or saline in a clock-wise rotation between four different sites on the back. Following loading doses on days 1, 3, 5 and 7, the monkeys were dosed once per week (on days 14, 21, 28, 35, and 42) with 35 mg/kg of Ionis oligonucleotide.
# Food was removed overnight the day before fresh urine collection, but water was supplied. Fresh urine samples for urinalysis and urine chemistry were collected from all animals using a clean cage pan on wet ice (first in the morning) on day 44. Urinalysis/Urine Chemistry parameters creatinine (UCRE), microprotein (UTP), urine microalbumin (UALB), and protein/creatinine (P/C) ratio were measured using a Toshiba 120FR automated chemistry analyzer (Toshiba Co., Japan).
# [2] = Cynomolgus monkey tolerability, coagulation (Example 34); type: in vivo; conditions: cynomolgus monkeys, 35 mg/kg subcutaneously, blood samples day 44
# Description: To evaluate effect of Ionis modified oligonucleotides on coagulation in cynomolgus monkeys, blood samples of approximately 0.9 mL were collected from each of the available study animals on day 44. The samples were collected in tubes containing 3.2% sodium citrate. Coagulation parameters tested include Activated partial thromboplastin time (APTT), prothrombin time (PT) and Figrinogen (FIB).
# [3] = Cynomolgus monkey tolerability, pro-inflammatory proteins analysis, Complement C3 and CRP (Example 34); type: in vivo; conditions: cynomolgus monkeys, 35 mg/kg subcutaneously, day 42 pre-dose and 24 hours post-dose
# Description: To evaluate any inflammatory effect of Ionis oligonucleotides in cynomolgus monkeys, blood samples were taken for analysis. The monkeys were fasted overnight prior to blood collection. On day 42 (pre-dose and 24 hours post-dose), approximately 0.8 mL of blood was collected from each animal and put into tubes without anticoagulant for serum separation. […] Complement C3 were measured using a Toshiba 120 FR NEO chemistry analyzer (Toshiba Co., Japan). […] Another marker of inflammation, C-Reactive Protein (CRP) was tested together with the clinical chemistry parameters tested for liver function above.
# [4] = Cynomolgus monkey tolerability, body and organ weight measurements (Example 34); type: in vivo; conditions: cynomolgus monkeys, 35 mg/kg subcutaneously, loading doses days 1, 3, 5, 7, then once per week
# Description: Cynomolgus monkeys were treated with Ionis modified oligonucleotides selected from studies described in the Examples above. Modified oligonucleotide tolerability was evaluated.
# During the study period, the monkeys were observed twice daily for signs of illness or distress. Any animal experiencing more than momentary or slight pain or distress due to the treatment, injury or illness was treated by the veterinary staff with approved analgesics or agents to relieve the pain after consultation with the Study Director. Any animal in poor health or in a possible moribund condition was identified for further monitoring and possible euthanasia. Scheduled euthanasia of the animals was conducted on day 86 approximately 48 hours after the last dose by exsanguination while under deep anesthesia. The protocols described in the Example were approved by the Institutional Animal Care and Use Committee (IACUC).
# To evaluate the effect of Ionis oligonucleotides on the overall health of the animals, body and organ weights were measured. Terminal body weight was measured prior to necropsy.
# [5] = Cynomolgus monkey tolerability, kidney and liver function markers (Example 34); conditions: cynomolgus monkeys, 35 mg/kg subcutaneously, blood samples day 44
# Description: as §4
# To evaluate the effect of Ionis oligonucleotides on hepatic and kidney function, blood samples were collected from all the study groups on day 44. The monkeys were fasted overnight prior to blood collection. Blood was collected in tubes without anticoagulant for serum separation. The tubes were kept at room temperature for a minimum of 90 minutes and then centrifuged at 3000 rpm for 10 minutes to obtain serum. Levels of various liver function markers were measured using a Toshiba 200FR NEO chemistry analyzer (Toshiba Co., Japan).
# [6] = Cynomolgus monkey tolerability, hematology (Example 34); type: in vivo, cynomolgus monkeys; conditions: cynomolgus monkeys, 35 mg/kg subcutaneously, blood samples day 44
# Description: To evaluate any effect of Ionis oligonucleotides in cynomolgus monkeys on hematologic parameters, blood samples of approximately 0.5 mL of blood was collected from each of the available study animals on day 44. The samples were collected in tubes containing K2-EDTA. Samples were analyzed for red blood cell (RBC) count, Hemoglobin (HGB), Hematocrit (HCT), Mean corpuscular volume (MCV), mean corpuscular hemoglobin (MCH), mean corpuscular hemoglobin concentration (MCHC), RBC Distribution Width (RCDW), reticulocyte count (Retic), platelet count (PLT), mean platelet volume (MPV), white blood cells (WBC) count, individual white blood cell counts, such as that of monocytes (MON), neutrophils (NEU), lymphocytes (LYM), eosinophils (EOS), basophils (BAS), and large unstained cells (LUC) using an ADVIA2120i hematology analyzer (Siemens, USA).
# [7] = Tolerability in Balb/c mice, plasma chemistry markers (Example 13); type: in vivo; conditions: male Balb/c mice, 50 mg/kg s.c. twice a week for four weeks (8 treatments), day 25
# Description: Balb/c mice were treated with modified oligonucleotides selected from studies described above and evaluated for changes in the levels of various plasma chemistry markers.
# (§2) Groups of male Balb/c mice at 4-6 weeks of age (obtained from Taconic) were injected subcutaneously twice a week for four weeks (for a total of 8 treatments) with 50 mg/kg of modified oligonucleotides. One group of male Balb/c mice was injected with PBS. Mice were euthanized on day 25 post start of treatment (24 hours following the final administration).
# Yap1 mRNA [8] = test: Dose-dependent inhibition of human Yap1 in A-431 cells (Example 7, 10,000 cells per well, RTS36584); type: cell-based; conditions: free uptake; for Yap1 mRNA, % UTC: A-431 cells 10,000 cells per well, 48 hours
# Outline: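 A-431 cells at 10,000 per well received modified oligonucleotides by free uptake at several doses. After about 48 hours, Yap1 mRNA was quantified with primer-probe set RTS36584, normalized to RIBOGREEN total RNA and expressed as % untreated control. IC50 came from linear regression on a log/linear plot.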
# [9] = Tolerability in Balb/c mice, body and organ weights (Example 13); type: in vivo; conditions: male Balb/c mice, 50 mg/kg s.c. twice a week for four weeks (8 treatments), end of study (day 25)
# Description: as §2
# Body weights of Balb/c mice were measured at the end of the study, and the average body weight for each group is presented in the table below. Modified oligonucleotides that caused any changes in organ weights outside the expected range for modified oligonucleotides were excluded from further studies.
# [10] = Tolerability in CD-1 mice, body and organ weights (Example 18); type: in vivo; conditions: male CD-1 mice, 50 mg/kg s.c. twice a week (total of 9 treatments), end of study (day 34)
# Description: (§3) Groups of four male CD-1 mice at 5-6 weeks of age (obtained from Charles River) were injected subcutaneously twice a week for four weeks (for a total of 9 treatments) with 50 mg/kg of modified oligonucleotides. One group of male CD-1 mice was injected with PBS. Mice were euthanized on day 34 post start of treatment (24 hours following the final administration).
# Body weights of CD-1 mice were measured at the end of the study, and the average body weight for each group is presented in the table below. Modified oligonucleotides that caused any changes in organ weights outside the expected range for modified oligonucleotides were excluded from further studies.
# Yap1 mRNA [11] = test: Dose-dependent inhibition of human Yap1 in SNU-449 cells (Example 9, RTS36584); type: cell-based; conditions: free uptake; for % UTC (Yap1 mRNA): approximately 48 hours
# Outline: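 SNU-449 cells (10,000/well) took up modified oligonucleotides by free uptake at a range of doses for about 48 h. Yap1 mRNA was quantified with primer-probe set RTS36584, normalised to RIBOGREEN total RNA and expressed as % untreated control; IC50 from linear regression on log/linear plot.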
# [12] = Tolerability in Sprague-Dawley rats, plasma chemistry markers (Example 20); type: in vivo; conditions: male Sprague-Dawley rats, 50 mg/kg s.c. weekly for 6 weeks (7 doses), 48 hours after last dose
# Description: Sprague-Dawley rats are a multipurpose model used for safety and efficacy evaluations. The rats were treated with Ionis modified oligonucleotides from the studies described in the Examples above and evaluated for changes in the levels of various plasma chemistry markers.
# [13] = Tolerability in Sprague-Dawley rats, body and organ weights (Example 20); type: in vivo; conditions: male Sprague-Dawley rats, 50 mg/kg s.c. weekly for 6 weeks (7 doses)
# Description: Terminal body weight was measured prior to necropsy. Ionis oligonucleotides that caused any changes in organ weights outside the expected range for modified oligonucleotides were excluded from further studies.
# [14] = Tolerability in Sprague-Dawley rats, kidney function, urine total protein to creatinine ratio (Example 20); conditions: male Sprague-Dawley rats, 50 mg/kg subcutaneously weekly for 6 weeks (total 7 doses)
# Description: Male Sprague-Dawley rats were maintained on a 12-hour light/dark cycle and fed ad libitum with Purina normal rat chow. Groups of 4 Sprague-Dawley rats each were weekly injected subcutaneously with 50 mg/kg of Ionis oligonucleotide for 6 weeks (total 7 doses). Forty-eight hours after the last dose, the rats were euthanized; and organs, urine and plasma were harvested for further analysis.
# To evaluate the effect of Ionis oligonucleotides on kidney function, urinary levels of total protein and creatinine were measured using an automated clinical chemistry analyzer (Hitachi Olympus AU400c, Melville, N.Y.).
# Yap1 mRNA [15] = test: Dose-dependent inhibition of human Yap1 in A-431 cells (Example 8, 10,000 cells per well, RTS4814); type: cell-based; conditions: free uptake, approximately 48 hours, RTS4814; for Yap1 mRNA, % UTC: A-431 cells, 10,000 cells per well
# Outline: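 A-431 cells (10,000/well) dosed with modified oligonucleotides by free uptake; Yap1 mRNA measured ~48 h later with primer-probe set RTS4814, normalized to total RNA (RIBOGREEN). Values are % of untreated control; IC50 from linear regression on log/linear plot.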
# [16] = Tolerability in CD-1 mice, plasma chemistry markers (Example 18); type: in vivo; conditions: male CD-1 mice, 50 mg/kg s.c. twice a week (total of 9 treatments), day 34
# Description: CD-1 mice were treated with modified oligonucleotides selected from studies described above and evaluated for changes in the levels of various plasma chemistry markers.
# as §3
substance,measurement,setting,value
"ION 1198440 (AAGTGTATGTCAGAAG; cEt, 2'-MOE, 5-methylcytosine, phosphorothioate modifications, further chemistry not given here)","ERK1/2 activation (pERK/ERK relative to PBS control), combination with sorafenib",ERK1/2,significant decrease in ERK1/2 activation
same,tumor volume,SNU449 xenograft tumor; 50 mg/kg modified oligonucleotide alone,significant reduction in tumor volume
same,"tumor volume, combination with sorafenib",SNU449 xenograft tumor; 50 mg/kg modified oligonucleotide plus 30 mg/kg sorafenib orally 7 times a week,further reduction in tumor volume
same,urine chemistry markers,[1],well tolerated
same,effect on coagulation parameters,[2],well tolerated
same,inflammation (Complement C3),[3],did not cause any inflammation
same,effect on body and organ weights,[4],well tolerated
same,effect on liver function,[5],well tolerated
same,effect on hematologic parameters,[6],well tolerated
958371 (antisense kA*k[5mC]*k[5mC]*dA*dA*d[5mC]*dT*dA*dT*dT*dA*d[5mC]*dT*kT*k[5mC]*kA) [compound 958371],ALT,[7],249 U/L
same,AST,[7],199 U/L
same,BUN,[7],30 mg/dL
same,TBIL,[7],0.24 mg/dL
same,"Yap1 mRNA, % UTC","Yap1 mRNA [8]; Table 56, 15.6 nM",89 % UTC
same,"Yap1 mRNA, % UTC","Yap1 mRNA [8]; Table 56, 62.5 nM",57 % UTC
same,"Yap1 mRNA, % UTC","Yap1 mRNA [8]; Table 56, 4000.00 nM",11 % UTC
same,IC50,"Yap1 mRNA [8]; Table 56, A-431 cells 10,000 cells per well",100 nM
same,Kidney weight,[9],0.32 g
same,Liver weight,[9],1.31 g
same,Spleen weight,[9],0.15 g
same,body weight,[9],23 g
1076481 (k[5mC]*kT*kA*dA*dG*dT*dA*dA*dG*dG*dT*dT*dT*k[5mC]*k[5mC]*k[5mC]) [compound 1076481],Kidney weight,[10],0.57 g
same,Liver weight,[10],2.06 g
same,Spleen weight,[10],0.23 g
same,body weight,[10],39 g
same,% UTC (Yap1 mRNA),Yap1 mRNA [11]; 31.3 nM,86 % UTC
same,% UTC (Yap1 mRNA),Yap1 mRNA [11]; 125.0 nM,40 % UTC
same,% UTC (Yap1 mRNA),Yap1 mRNA [11]; 500.0 nM,15 % UTC
same,% UTC (Yap1 mRNA),Yap1 mRNA [11]; 2000.00 nM,3 % UTC
same,IC50,Yap1 mRNA [11]; linear regression on a log/linear plot,100 nM
same,ALB,[12],2.74 g/dL
same,ALT,[12],50 U/L
same,AST,[12],91 U/L
same,BUN,[12],49 mg/dL
same,TBIL,[12],0.13 mg/dL
same,Kidney weight,[13]; end of study,2.6 g
same,Liver weight,[13]; end of study,14 g
same,Spleen weight,[13]; end of study,2.1 g
same,body weight,"[13]; terminal, prior to necropsy",367 g
same,URINE P/C ratio (total protein to creatinine ratio),[14],5
same,"Yap1 mRNA, % UTC",Yap1 mRNA [15]; 31.3 nM,21 % UTC
same,"Yap1 mRNA, % UTC",Yap1 mRNA [15]; 125.0 nM,4 % UTC
same,"Yap1 mRNA, % UTC",Yap1 mRNA [15]; 500.0 nM,2 % UTC
same,"Yap1 mRNA, % UTC",Yap1 mRNA [15]; 2000.00 nM,3 % UTC
same,IC50,"Yap1 mRNA [15]; A-431 cells, linear regression on log/linear plot",< 20 nM
same,ALT,[16],71 U/L
same,AST,[16],121 U/L
same,BUN,[16],23 mg/dL
same,TBIL,[16],0.23 mg/dL
